Experimental data taken from patent US20110046227A1, “METHODS FOR CONCOMITANT ADMINISTRATION OF […] A SECOND ACTIVE AGENT” (MUTUAL PHARMACEUTICAL COMPANY, INC., priority 2009, published 2011).
Like-named read-outs stand apart in the source and are kept apart here.

Test: Pharmacokinetic study in healthy adults of single vs. multiple oral doses of colchicine tablets (Example 1);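 note: Single-dose and multiple-dose periods given to the same subjects, with a 14-day washout between the two periods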
Type: in vivo, human
Conditions: for Vd/F / half-life / Tmax / AUC(0-inf) / AUC(0-t) / AUC / Cmax: human, plasma, 0.6 mg; for Vd/F: Vd = CL/Ke, calculated from mean values, read-out: Vd/F, Mean (% CV)
[1] = multiple (b.i.d.) oral doses colchicine 0.6 mg for 10 days, Day 25, healthy adults N=13, plasma, median

Procedure: Subjects received a light breakfast served 60 minutes following dose administration in the morning and the evening dose was administered 90 minutes after an evening meal on Days 15 through 24 only. […] Study periods were separated by a 14-day washout. Following the single dose and the last dose of the multiple dose regimen (beginning on the mornings of Day 1 and Day 25, respectively), blood samples were collected (6 mL each) from each subject within 1 hour prior to dosing and after dose administration at study hours 0.5, 1, 1.5, 2, 3, 4, 6, 8, 10, 12, and 24 (while confined) and 36, 48, 72, and 96 (on an outpatient basis).
All subjects completed both dosing periods according to protocol.
In tables, the parameter CL/F denotes the apparent total body clearance after administration, calculated as Total Dose/Total AUC0-tau; and Vd/F denotes the apparent total volume of distribution after administration, calculated as Total Dose/(Total AUC∞×Kel).
Pharmacokinetic parameters referred to herein describe the in vivo characteristics of drug (or a metabolite or a surrogate marker for the drug) over time. These include plasma concentration (C), as well as Cmax, Cn, C24, Tmax, and AUC. “Cmax” is the measured plasma concentration of the active agent at the point of maximum, or peak, concentration. “Cmin” is the measured plasma concentration of the active agent at the point of minimum concentration. “Cn” is the measured plasma concentration of the active agent at about n hours after administration. […] The term “Tmax” refers to the time from drug administration until Cmax is reached. “AUC” is the area under the curve of a graph of the measured plasma concentration of an active agent vs. time, measured from one time point to another time point. […] Time t can be the last time point with measurable plasma concentration for an individual formulation. The AUC0-∞, AUC∞ or AUC0-inf is the calculated area under the curve of plasma concentration versus time from time 0 to time infinity.

With `COc1cc2c(c(OC)c1O)-c1ccc(OC)c(=O)cc1[C@@H](NC(C)=O)CC2` [2-O-demethylcolchicine] the metabolite plasma concentration (after colchicine 0.6 mg single and multiple doses, LOQ 0.2 ng/mL, 13 subjects) was < 0.2 ng/mL.
In the case of `COc1cc2c(c(OC)c1OC)-c1ccc(OC)c(=O)cc1[C@@H](NC(C)=O)CC2` [Colchicine, (−)-N-[(7S,12aS)-1,2,3,10-tetramethoxy-9-oxo-5,6,7,9-tetrahydrobenzo[a]heptalen-7-yl]-acetamide], the “attainment of steady state (trough plasma concentrations)” value (0.6 mg b.i.d., most subjects) is reported as “by approximately the eighth day of dosing”, the elimination half-life (calculated following a single oral dose, stated not to be an accurate estimate) is reported as “approximately 5 hours” and the secondary colchicine peak (following a single dose or upon multiple dosing, individual subject data) is reported as “no subject experienced a secondary colchicine peak”. The “apparent volume of distribution” value (healthy adults, oral, single dose) was 540 L, the Vd/F (oral, colchicine 0.6 mg b.i.d. × 10 days, Day 25) was 1150 L and the Vd/F (oral, colchicine 0.6-mg single dose, Day 1, N=13) was 341 L. For the same compound, the half-life (oral, repeated dosing 0.6 mg b.i.d., read-out: terminal elimination half life (converted)) was 26.6 h, the half-life (po, multiple (b.i.d.) oral doses colchicine 0.6 mg for 10 days, Day 25, healthy adults N=13, mean, read-out: T1/2, MEAN (converted)) was 26.6 h and the Tmax (po, multiple (b.i.d.) oral doses colchicine 0.6 mg for 10 days, Day 25, healthy adults N=13, mean, read-out: Tmax, MEAN) was 1.31 h. The half-life (po, multiple (b.i.d.) oral doses colchicine 0.6 mg for 10 days, Day 25, healthy adults N=13, median, read-out: T1/2, MEDIAN (converted)) was 26.5 h, the Tmax (po, multiple (b.i.d.) oral doses colchicine 0.6 mg for 10 days, Day 25, healthy adults N=13, median, read-out: Tmax, MEDIAN) was 1 h and the AUC(0-inf) (po, multiple (b.i.d.) oral doses colchicine 0.6 mg for 10 days, Day 25, healthy adults N=13, plasma, mean, read-out: AUC0-inf, MEAN) was 54.2 ng·h/mL. For the same compound, the AUC(0-t) (po, multiple (b.i.d.) oral doses colchicine 0.6 mg for 10 days, Day 25, healthy adults N=13, plasma, mean, read-out: AUC0-t, MEAN) was 43.6 ng·h/mL, the AUC (po, multiple (b.i.d.) oral doses colchicine 0.6 mg for 10 days, Day 25, healthy adults N=13, plasma, mean, read-out: AUC0-τ, MEAN) was 20.4 ng·h/mL and the Cmax (po, multiple (b.i.d.) oral doses colchicine 0.6 mg for 10 days, Day 25, healthy adults N=13, plasma, mean, read-out: Cmax, MEAN) was 3.55 ng/mL. It also gave an AUC(0-inf) (po, multiple (b.i.d.) oral doses colchicine 0.6 mg for 10 days, Day 25, healthy adults N=13, plasma, median, read-out: AUC0-inf, MEDIAN) of 54.1 ng·h/mL, an AUC(0-t) (po, multiple (b.i.d.) oral doses colchicine 0.6 mg for 10 days, Day 25, healthy adults N=13, plasma, median, read-out: AUC0-t, MEDIAN) of 41.9 ng·h/mL and an AUC (po, multiple (b.i.d.) oral doses colchicine 0.6 mg for 10 days, Day 25, healthy adults N=13, plasma, median, read-out: AUC0-τ, MEDIAN) of 20.4 ng·h/mL. For the same compound, the Cmax (po, multiple (b.i.d.) oral doses colchicine 0.6 mg for 10 days, Day 25, healthy adults N=13, plasma, median, read-out: Cmax, MEDIAN) was 3.73 ng/mL, the half-life (po, single oral dose colchicine 0.6 mg, healthy adults N=13, mean, read-out: T1/2, MEAN (converted)) was 4.95 h and the half-life (po, single oral dose colchicine 0.6 mg, healthy adults N=13, median, read-out: T1/2, MEDIAN (converted)) was 3.48 h. It also gave a Tmax (po, single oral dose colchicine 0.6 mg, healthy adults N=13, median, read-out: Tmax, MEDIAN) of 1.5 h, an AUC(0-inf) (po, single oral dose colchicine 0.6 mg, healthy adults N=13, plasma, mean, read-out: AUC0-inf, MEAN) of 12.3 ng·h/mL and an AUC(0-t) (po, single oral dose colchicine 0.6 mg, healthy adults N=13, plasma, mean, read-out: AUC0-t, MEAN) of 10.5 ng·h/mL. It also gave a Cmax (po, single oral dose colchicine 0.6 mg, healthy adults N=13, plasma, mean, read-out: Cmax, MEAN) of 2.45 ng/mL, an AUC(0-inf) (po, single oral dose colchicine 0.6 mg, healthy adults N=13, plasma, median, read-out: AUC0-inf, MEDIAN) of 11.5 ng·h/mL and an AUC(0-t) (po, single oral dose colchicine 0.6 mg, healthy adults N=13, plasma, median, read-out: AUC0-t, MEDIAN) of 10.6 ng·h/mL. The Cmax (po, single oral dose colchicine 0.6 mg, healthy adults N=13, plasma, median, read-out: Cmax, MEDIAN) was 2.48 ng/mL, the “Kel, MEAN” value (multiple (b.i.d.) oral doses colchicine 0.6 mg for 10 days, Day 25, healthy adults N=13, mean) was 0.0267 h⁻¹ and the “Kel, MEDIAN” value (multiple (b.i.d.) oral doses colchicine 0.6 mg for 10 days, Day 25, healthy adults N=13, median) was 0.0261 h⁻¹. For the same compound, the “Cave, MEAN” value (multiple (b.i.d.) oral doses colchicine 0.6 mg for 10 days, Day 25, healthy adults N=13, plasma, mean) was 1.69722 ng/mL, the “Cave, MEDIAN” value [1] was 1.70192 ng/mL and the “Cmin, MEDIAN” value [1] was 0.9035 ng/mL. The “mean Cmin concentration” value (observed on Day 25, 0.6 mg b.i.d. steady state regimen) was 0.907 ng/mL, the “plasma concentrations quantifiable after a single dose” value (single dose 0.6 mg, 24 hours post-dose) was “no longer quantifiable 24 hours post-dose in all but 1 subject” and the “Kel, MEAN” value (single oral dose colchicine 0.6 mg, healthy adults N=13, mean) was 0.1829 h⁻¹. For the same compound, the “Kel, MEDIAN” value (single oral dose colchicine 0.6 mg, healthy adults N=13, median) was 0.1992 h⁻¹ and the “Cmin prior to the morning dose higher than Cmin prior to the evening dose” value (steady state, Day 23 and Day 24) was “approximately 12%”.
